Assay results published in US12459925B2, “Sulphonyl urea derivatives as NLRP3 inflammasome modulators” (priority 2017, dated 2025).
Like-named read-outs stand apart in the source and are kept apart here.

System: IL-1β release upon NLRP3 activation in peripheral blood mononuclear cells (PBMC)
Assay: PBMC IC50 determination assay (IL-1β release, Protocol A ELISA / Protocol B HTRF)
Assay type: cell-based
Settings: Homo sapiens
Procedure: The compounds of the present disclosure were tested for their inhibitory activity against IL-1β release upon NLRP3 activation in peripheral blood mononuclear cells (PBMC).
Isolated cells were seeded into the wells of a 96-well plate and incubated for 3 h with lipopolysaccharide (LPS). Following medium exchange, the compounds of the present disclosure were added (a single compound per well) and the cells were incubated for 30 min. Next, the cells were stimulated either with ATP (5 mM) or nigericin (10 μM) for 1 h and the cell culture media from the wells were collected for further analysis.
The release of IL1-β into the media was determined by a quantitative detection of IL-1β in the media using an IL-1β enzyme-linked immunosorbent assay (ELISA) Ready-SET-Go!, eBioscience cat. […] Subsequently, plates were blocked with blocking buffer for 1 h at room temperature (rt) and after washing with a buffer (PBS with 0.05% Tween-20) incubated with protein standard and culture media. […] Plates were washed and incubated with HRP-streptavidin for 30 min at rt and washed again. The signal was developed after addition of 3,3′,5,5′-tetramethylbenzidine-peroxidase (TMB) until colour appeared and the reaction was stopped by 2 M H2SO4. A microplate spectrophotometer (BioTek) was used to detect signals with 450 nm. The detection range of IL-1β ELISA was 2-150 ng/ml.
Isolated cells were seeded into the wells (280,000 cells/well) of a 96-well plate and incubated for 3 h with lipopolysaccharide (LPS, 1 μg/ml diluted 1000× from a 1 mg/ml stock solution). The compounds of the present disclosure were added (a single compound per well) and the cells were incubated for 30 min. Next, the cells were stimulated with ATP (5 mM final concentration diluted 20× from a 100 mM stock solution) for 1 h and the cell culture media from the wells were collected for further analysis.
The release of IL-1β into the media was determined by quantitative detection of IL-1β in the media using HTRF®, CisBio cat. No. 62HIL1BPEH. Briefly, cell culture supernatant were dispensed directly into the assay plate containing antibodies labelled with the HTRF® donor and acceptor. A microplate spectrophotometer (BMG) was used to detect signals at 655 nm and 620 nm. The detection range of IL-1β HTRF® was 39-6500 pg/ml.

[1] = PBMC primed with LPS 3 h, compound 30 min, stimulated with ATP (5 mM) or nigericin (10 μM) 1 h, IL-1β in media, read-out: Average PBMC IC50
[2] = PBMC, read-out: Average PBMC IC50 (μM)

`Cn1cc(N(C2CCOCC2)S(=O)(=O)NC(=O)Nc2c3c(cc4c2CCC4)CCC3)cn1` [Compound 1] was tested, and the IC50 [1] was < 1 µM.
For `CN1CCC(N(c2cnn(C)c2)S(=O)(=O)NC(=O)Nc2c3c(cc4c2CCC4)CCC3)CC1` [Compound 2], the IC50 [1] was < 1 µM.
Work on `CN1CCC(CN(c2cnn(C)c2)S(=O)(=O)NC(=O)Nc2c3c(cc4c2CCC4)CCC3)CC1` [Compound 3] yielded an IC50 [1] of 1 to 3 µM.
For `CC(C)n1cc(N(C2CCOCC2)S(=O)(=O)NC(=O)Nc2c3c(cc4c2CCC4)CCC3)cn1` [Compound 4], the IC50 [1] was < 1 µM.
`CC(C)n1cc(N(C2CCN(C)CC2)S(=O)(=O)NC(=O)Nc2c3c(cc4c2CCC4)CCC3)cn1` [Compound 5] was tested, and the IC50 [1] was < 1 µM.
For `CCn1cc(N(C2CCOCC2)S(=O)(=O)NC(=O)Nc2c3c(cc4c2CCC4)CCC3)cn1` [Compound 6], the IC50 [1] was < 1 µM.
In the case of `CCn1cc(N(C2CCN(C)CC2)S(=O)(=O)NC(=O)Nc2c3c(cc4c2CCC4)CCC3)cn1` [Compound 7], the IC50 [1] is reported as < 1 µM.
For `Cn1cc(N(C2CCOC2)S(=O)(=O)NC(=O)Nc2c3c(cc4c2CCC4)CCC3)cn1` (stereo not drawn) [Compound 8], the IC50 [1] was < 1 µM.
For `Cn1ccc(N(C2CCOCC2)S(=O)(=O)NC(=O)Nc2c3c(cc4c2CCC4)CCC3)n1` [Compound 9], the IC50 [1] was < 1 µM.
In the case of `Cc1c(N(C2CCOCC2)S(=O)(=O)NC(=O)Nc2c3c(cc4c2CCC4)CCC3)cnn1C` [Compound 10], the IC50 [1] is reported as < 1 µM.
In the case of `Cc1nn(C)c(C)c1N(C1CCOCC1)S(=O)(=O)NC(=O)Nc1c2c(cc3c1CCC3)CCC2` [Compound 11], the IC50 [1] is reported as < 1 µM.
Work on `Cc1cc(N(C2CCOCC2)S(=O)(=O)NC(=O)Nc2c3c(cc4c2CCC4)CCC3)no1` [Compound 12] yielded an IC50 [1] of 3 to 10 µM.
With `O=C(Nc1c2c(cc3c1CCC3)CCC2)NS(=O)(=O)N(c1cnoc1)C1CCOCC1` [Compound 13] the IC50 [1] was < 1 µM.
In the case of `Cc1c(N(C2CCN(C)CC2)S(=O)(=O)NC(=O)Nc2c3c(cc4c2CCC4)CCC3)cnn1C` [Compound 14], the IC50 [1] is reported as < 1 µM.
Work on `Cc1nn(C)c(C)c1N(C1CCN(C)CC1)S(=O)(=O)NC(=O)Nc1c2c(cc3c1CCC3)CCC2` [Compound 15] yielded an IC50 [1] of 1 to 3 µM.
In the case of `Cn1cc(N(CC2COC2)S(=O)(=O)NC(=O)Nc2c3c(cc4c2CCC4)CCC3)cn1` [Compound 16], the IC50 [1] is reported as < 1 µM.
With `O=C(Nc1c2c(cc3c1CCC3)CCC2)NS(=O)(=O)N(c1cncnc1)C1CCOCC1` [Compound 17] the IC50 [1] was < 1 µM.
For `Cc1cc(N(C2CCOCC2)S(=O)(=O)NC(=O)Nc2c3c(cc4c2CCC4)CCC3)on1` [Compound 18], the IC50 [1] was < 1 µM.
Molecule `Cn1cnc(N(C2CCOCC2)S(=O)(=O)NC(=O)Nc2c3c(cc4c2CCC4)CCC3)n1` [Compound 19] has an IC50 [1] of 3 to 10 µM.
With `CN1CCC(N(c2ccn(C)n2)S(=O)(=O)NC(=O)Nc2c3c(cc4c2CCC4)CCC3)CC1` [Compound 20] the IC50 [1] was < 1 µM.
Work on `Cn1cnc(N(C2CCOCC2)S(=O)(=O)NC(=O)Nc2c3c(cc4c2CCC4)CCC3)c1` [Compound 21] yielded an IC50 [1] of 3 to 10 µM.
`Cn1cc(N(C2CCCOC2)S(=O)(=O)NC(=O)Nc2c3c(cc4c2CCC4)CCC3)cn1` (stereo not drawn) [Compound 22] was tested, and the IC50 [1] was < 1 µM.
In the case of `CN1CCCC(N(c2cnn(C)c2)S(=O)(=O)NC(=O)Nc2c3c(cc4c2CCC4)CCC3)C1` (stereo not drawn) [Compound 23], the IC50 [1] is reported as < 1 µM.
With `CN1CCC(N(c2cnn(C)c2)S(=O)(=O)NC(=O)Nc2c3c(cc4c2CCC4)CCC3)C1` (stereo not drawn) [Compound 24] the IC50 [1] was < 1 µM.
`O=C(Nc1c2c(cc3c1CCC3)CCC2)NS(=O)(=O)N(c1cnn(C(F)F)c1)C1CCOCC1` [Compound 25] was tested, and the IC50 [1] was < 1 µM.
With `O=C(Nc1c2c(cc3c1CCC3)CCC2)NS(=O)(=O)N(c1cnn(CC(F)(F)F)c1)C1CCOCC1` [Compound 26] the IC50 [1] was < 1 µM.
For `COCn1cc(N(C2CCOCC2)S(=O)(=O)NC(=O)Nc2c3c(cc4c2CCC4)CCC3)cn1` [Compound 27], the IC50 [1] was < 1 µM.
`COCn1cc(N(C2CCN(C)CC2)S(=O)(=O)NC(=O)Nc2c3c(cc4c2CCC4)CCC3)cn1` [Compound 28] was tested, and the IC50 [1] was < 1 µM.
With `COCCn1cc(N(C2CCOCC2)S(=O)(=O)NC(=O)Nc2c3c(cc4c2CCC4)CCC3)cn1` [Compound 29] the IC50 [1] was < 1 µM.
For `N#CCn1cc(N(C2CCOCC2)S(=O)(=O)NC(=O)Nc2c3c(cc4c2CCC4)CCC3)cn1` [Compound 30], the IC50 [1] was < 1 µM.
For `CN1CCC(N(c2cnn(CC#N)c2)S(=O)(=O)NC(=O)Nc2c3c(cc4c2CCC4)CCC3)CC1` [Compound 31], the IC50 [1] was < 1 µM.
For `CCN1CCC(N(c2cnn(C)c2)S(=O)(=O)NC(=O)Nc2c3c(cc4c2CCC4)CCC3)CC1` [Compound 32], the IC50 [1] was < 1 µM.
With `CC(C)N1CCC(N(c2cnn(C)c2)S(=O)(=O)NC(=O)Nc2c3c(cc4c2CCC4)CCC3)CC1` [Compound 33] the IC50 [1] was 1 to 3 µM.
For `CN1CCC(N(c2cnn(C(F)F)c2)S(=O)(=O)NC(=O)Nc2c3c(cc4c2CCC4)CCC3)CC1` [Compound 34], the IC50 [1] was < 1 µM.
In the case of `O=C(Nc1c2c(cc3c1CCC3)CCC2)NS(=O)(=O)N(c1cnn(CC(F)F)c1)C1CCOCC1` [Compound 35], the IC50 [1] is reported as < 1 µM.
With `CN1CCC(N(c2cnn(CC(F)F)c2)S(=O)(=O)NC(=O)Nc2c3c(cc4c2CCC4)CCC3)CC1` [Compound 36] the IC50 [1] was < 1 µM.
For `CN1CCC(N(c2cnn(CC(F)(F)F)c2)S(=O)(=O)NC(=O)Nc2c3c(cc4c2CCC4)CCC3)CC1` [Compound 37], the IC50 [1] was < 1 µM.
For `COCCn1cc(N(C2CCN(C)CC2)S(=O)(=O)NC(=O)Nc2c3c(cc4c2CCC4)CCC3)cn1` [Compound 38], the IC50 [1] was < 1 µM.
With `CN1CCC(N(c2cnn(C3CC3)c2)S(=O)(=O)NC(=O)Nc2c3c(cc4c2CCC4)CCC3)CC1` [Compound 39] the IC50 [1] was < 1 µM.
For `CN1CCC(N(c2cn[nH]c2)S(=O)(=O)NC(=O)Nc2c3c(cc4c2CCC4)CCC3)CC1` [Compound 40], the IC50 [2] was 1 to 3 µM.
With `O=C(Nc1c2c(cc3c1CCC3)CCC2)NS(=O)(=O)N(c1cnn(C2COC2)c1)C1CCOCC1` [Compound 41] the IC50 [1] was < 1 µM.
In the case of `CN1CCC(N(c2cnn(C3COC3)c2)S(=O)(=O)NC(=O)Nc2c3c(cc4c2CCC4)CCC3)CC1` [Compound 42], the IC50 [1] is reported as < 1 µM.
In the case of `CN(C)CCn1cc(N(C2CCOCC2)S(=O)(=O)NC(=O)Nc2c3c(cc4c2CCC4)CCC3)cn1` [Compound 43], the IC50 [1] is reported as < 1 µM.
With `CN1CCC(N(c2cnn(C3CCC3)c2)S(=O)(=O)NC(=O)Nc2c3c(cc4c2CCC4)CCC3)CC1` [Compound 44] the IC50 [1] was < 1 µM.
`Cn1cc(N(C2CCN(CC(F)F)CC2)S(=O)(=O)NC(=O)Nc2c3c(cc4c2CCC4)CCC3)cn1` [Compound 45] gave an IC50 [2] of 1 to 3 µM.
With `Cn1cc(N(CCN2CCOCC2)S(=O)(=O)NC(=O)Nc2c3c(cc4c2CCC4)CCC3)cn1` [Compound 46] the IC50 [1] was < 1 µM.
`CN1CCC(N(c2cnn(C)c2)S(=O)(=O)NC(=O)Nc2c3c(cc4c2CCC4)CCC3)CC1=O` (stereo not drawn) [Compound 47] gave an IC50 [1] of 1 to 3 µM.
For `O=C(Nc1c2c(cc3c1CCC3)CCC2)NS(=O)(=O)N(c1cn[nH]c1)C1CCOCC1` [Compound 48], the IC50 [2] was < 1 µM.
`CC(C)c1cc(NC(=O)NS(=O)(=O)N(c2cnn(C)c2)C2CCN(C)CC2)cc(C(C)C)c1` [Compound 49] was tested, and the IC50 [1] was < 1 µM.
With `CCN1CCC(N(c2cnn(C)c2)S(=O)(=O)NC(=O)Nc2c3c(cc4c2CCC4)CCC3)C1` (stereo not drawn) [Compound 50] the IC50 [1] was < 1 µM.
`CC(C)N1CCC(N(c2cnn(C)c2)S(=O)(=O)NC(=O)Nc2c3c(cc4c2CCC4)CCC3)C1` (stereo not drawn) [Compound 51] was tested, and the IC50 [1] was < 1 µM.
`CC(C)N1CCCC(N(c2cnn(C)c2)S(=O)(=O)NC(=O)Nc2c3c(cc4c2CCC4)CCC3)C1` (stereo not drawn) [Compound 52] was tested, and the IC50 [1] was < 1 µM.
In the case of `CCc1cc(CC)cc(NC(=O)NS(=O)(=O)N(c2cnn(C)c2)C2CCN(C)CC2)c1` [Compound 53], the IC50 [1] is reported as < 1 µM.
`Cn1cc(N(C2CN3CCC2CC3)S(=O)(=O)NC(=O)Nc2c3c(cc4c2CCC4)CCC3)cn1` (stereo not drawn) [Compound 54] was tested, and the IC50 [2] was < 1 µM.
